Assay results published in US9266892B2, “Fused pyrazoles as FGFR inhibitors” (Incyte Corporation, priority 2012, dated 2016).

Legend:
Assay type in all cases: biochemical
[1] = target: T1, FGFR2 (Homo sapiens, UniProt P21802); experiment: FGFR Enzymatic Assay (FRET peptide phosphorylation), FGFR2; conditions: FGFR2 0.01 nM, ATP 100 μM
T1 construct: purchased Millipore or Invitrogen
Method: (§1) The inhibitor potency of the Example compounds was measured in an enzyme assay that measures peptide phosphorylation using FRET measurements to detect product formation. Inhibitors were serially diluted in DMSO and a volume of 0.5 μL was transferred to the wells of a 384-well plate. For FGFR3, a 10 μL volume of FGFR3 enzyme (Millipore) diluted in assay buffer (50 mM HEPES, 10 mM MgCl2, 1 mM EGTA, 0.01% Tween-20, 5 mM DTT, pH 7.5) was added to the plate and pre-incubated for 5-10 minutes. Appropriate controls (enzyme blank and enzyme with no inhibitor) were included on the plate. The assay was initiated by the addition of a 10 μL solution containing biotinylated EQEDEPEGDYFEWLE peptide substrate (SEQ ID NO: 1) and ATP (final concentrations of 500 nM and 140 μM respectively) in assay buffer to the wells. The plate was incubated at 25° C. for 1 hr. The reactions were ended with the addition of 10 μL/well of quench solution (50 mM Tris, 150 mM NaCl, 0.5 mg/mL BSA, pH˜7.8, 30 mM EDTA with Perkin Elmer Lance Detection Reagents at 3.75 nM Eu-antibody PY20 and 180 nM APC-Streptavidin). The plate was allowed to equilibrate for 1 hour before scanning the wells on a PheraStar plate reader (BMG Labtech). The enzymes were purchased from Millipore or Invitrogen.
(§2) FGFR1 and FGFR2 were measured under equivalent conditions with the following changes in enzyme and ATP concentrations: FGFR1, 0.02 nM and 210 μM, respectively and FGFR2, 0.01 nM and 100 μM, respectively.
(§3) GraphPad prism3 was used to analyze the data. The IC50 values were derived by fitting the data to the equation for a sigmoidal dose-response with a variable slope. Y=Bottom+(Top−Bottom)/(1+10^((Log IC50−X)*HillSlope)) where X is the logarithm of concentration and Y is the response.

[2] = target: T2, FGFR3 (Homo sapiens, UniProt P22607); experiment: FGFR Enzymatic Assay (FRET peptide phosphorylation), FGFR3; conditions: ATP 140 μM, 25° C. for 1 hr
T2 construct: purchased Millipore
T2 sequence (P22607 23-806): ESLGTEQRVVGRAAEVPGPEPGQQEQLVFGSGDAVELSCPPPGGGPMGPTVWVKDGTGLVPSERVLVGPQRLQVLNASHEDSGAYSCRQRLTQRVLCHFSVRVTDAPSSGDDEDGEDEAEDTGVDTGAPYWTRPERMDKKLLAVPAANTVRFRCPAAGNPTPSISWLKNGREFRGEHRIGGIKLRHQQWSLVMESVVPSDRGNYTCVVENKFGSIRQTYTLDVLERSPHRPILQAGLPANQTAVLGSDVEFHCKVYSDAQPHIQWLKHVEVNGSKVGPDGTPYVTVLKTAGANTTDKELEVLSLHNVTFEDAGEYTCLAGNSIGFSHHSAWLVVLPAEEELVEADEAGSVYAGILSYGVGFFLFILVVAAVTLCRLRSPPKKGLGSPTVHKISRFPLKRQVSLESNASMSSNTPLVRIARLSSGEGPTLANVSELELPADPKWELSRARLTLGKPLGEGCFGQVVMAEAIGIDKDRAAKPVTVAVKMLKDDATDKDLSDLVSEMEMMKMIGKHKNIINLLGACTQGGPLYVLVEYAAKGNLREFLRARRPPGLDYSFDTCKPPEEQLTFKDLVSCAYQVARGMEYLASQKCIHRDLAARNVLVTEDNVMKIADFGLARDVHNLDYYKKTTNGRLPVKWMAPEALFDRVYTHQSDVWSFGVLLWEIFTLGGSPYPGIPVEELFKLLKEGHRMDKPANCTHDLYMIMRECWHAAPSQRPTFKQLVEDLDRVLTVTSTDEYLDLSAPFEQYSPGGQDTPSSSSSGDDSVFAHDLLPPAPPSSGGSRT
Method: as §1, §3

[3] = target: T3, FGFR1 (Homo sapiens, UniProt P11362); experiment: FGFR Enzymatic Assay (FRET peptide phosphorylation), FGFR1; conditions: FGFR1 0.02 nM, ATP 210 μM
T3 construct: purchased Millipore or Invitrogen
T3 sequence (P11362 22-822): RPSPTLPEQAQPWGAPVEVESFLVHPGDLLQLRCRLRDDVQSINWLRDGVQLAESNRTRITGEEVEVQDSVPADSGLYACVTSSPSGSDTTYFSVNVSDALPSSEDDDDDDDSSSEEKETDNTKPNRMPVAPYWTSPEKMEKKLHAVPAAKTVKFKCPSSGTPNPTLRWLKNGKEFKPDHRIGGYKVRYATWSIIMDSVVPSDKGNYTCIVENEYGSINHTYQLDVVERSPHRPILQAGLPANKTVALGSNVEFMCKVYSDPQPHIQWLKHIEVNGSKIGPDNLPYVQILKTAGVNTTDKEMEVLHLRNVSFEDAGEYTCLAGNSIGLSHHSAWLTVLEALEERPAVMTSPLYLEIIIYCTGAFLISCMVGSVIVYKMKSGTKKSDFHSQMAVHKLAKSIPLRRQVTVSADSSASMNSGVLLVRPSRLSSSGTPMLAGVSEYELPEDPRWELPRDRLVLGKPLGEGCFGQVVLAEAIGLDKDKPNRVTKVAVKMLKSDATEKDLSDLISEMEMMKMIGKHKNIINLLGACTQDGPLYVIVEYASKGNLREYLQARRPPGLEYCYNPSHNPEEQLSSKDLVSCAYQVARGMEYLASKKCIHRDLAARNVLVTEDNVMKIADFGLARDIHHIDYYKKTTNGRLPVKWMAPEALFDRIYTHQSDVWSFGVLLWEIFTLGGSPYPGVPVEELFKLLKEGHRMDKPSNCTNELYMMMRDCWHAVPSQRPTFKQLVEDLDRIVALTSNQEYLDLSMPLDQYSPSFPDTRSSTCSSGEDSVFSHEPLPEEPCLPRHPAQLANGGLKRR
Method: as §1, §2, §3

Measured: IC50

T1 sequence (P21802 22-821): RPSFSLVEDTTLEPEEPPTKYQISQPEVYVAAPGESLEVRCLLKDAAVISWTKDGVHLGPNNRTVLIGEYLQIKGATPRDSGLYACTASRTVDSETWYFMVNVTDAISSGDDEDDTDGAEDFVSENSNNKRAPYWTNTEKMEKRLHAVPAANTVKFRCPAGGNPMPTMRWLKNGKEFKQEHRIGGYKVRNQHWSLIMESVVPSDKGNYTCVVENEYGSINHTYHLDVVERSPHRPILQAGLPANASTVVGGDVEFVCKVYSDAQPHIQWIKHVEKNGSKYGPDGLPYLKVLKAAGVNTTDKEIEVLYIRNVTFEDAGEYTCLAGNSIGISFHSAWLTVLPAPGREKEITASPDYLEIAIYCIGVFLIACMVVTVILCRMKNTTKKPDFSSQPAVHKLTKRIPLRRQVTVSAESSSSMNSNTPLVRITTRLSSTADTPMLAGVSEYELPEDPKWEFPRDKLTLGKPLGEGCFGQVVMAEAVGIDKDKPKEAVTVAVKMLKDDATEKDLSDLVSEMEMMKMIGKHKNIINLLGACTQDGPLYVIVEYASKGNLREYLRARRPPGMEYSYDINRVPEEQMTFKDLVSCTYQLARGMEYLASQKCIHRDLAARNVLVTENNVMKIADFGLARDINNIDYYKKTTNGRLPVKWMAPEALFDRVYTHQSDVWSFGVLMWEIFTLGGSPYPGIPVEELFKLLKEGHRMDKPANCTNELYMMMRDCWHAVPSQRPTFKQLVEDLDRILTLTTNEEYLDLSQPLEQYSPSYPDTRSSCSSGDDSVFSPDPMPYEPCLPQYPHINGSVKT

COc1cc(OC)c(Cl)c(-c2cc3[nH]nc(-c4cnn(CC(=O)N5CCOCC5)c4)c3cn2)c1Cl [Example 40, 6-(2,6-Dichloro-3,5-dimethoxyphenyl)-3-[1-(2-morpholin-4-yl-2-oxoethyl)-1H-pyrazol-4-yl]-1H-pyrazolo[4,3-c]pyridine]
< 100 nM: all assays above

COc1cc(OC)c(Cl)c(-c2cc3[nH]nc(-c4cnn(CC(=O)N5CCN(C)CC5)c4)c3cn2)c1Cl [Example 41, 6-(2,6-Dichloro-3,5-dimethoxyphenyl)-3-{1-[2-(4-methylpiperazin-1-yl)-2-oxoethyl]-1H-pyrazol-4-yl}-1H-pyrazolo[4,3-c]pyridine]
< 100 nM: all assays above

COc1cc(OC)c(Cl)c(-c2cc3[nH]nc(-c4cnn(CC(=O)NC5CCN(C)CC5)c4)c3cn2)c1Cl [Example 42, 2-{4-[6-(2,6-Dichloro-3,5-dimethoxyphenyl)-1H-pyrazolo[4,3-c]pyridin-3-yl]-1H-pyrazol-1-yl}-N-(1-methylpiperidin-4-yl)acetamide]
< 100 nM: all assays above

COc1cc(OC)c(Cl)c(-c2cc3[nH]nc(-c4cnn(CC(=O)N5CCC(O)C5)c4)c3cn2)c1Cl (stereo not drawn) [Example 43, 1-({4-[6-(2,6-Dichloro-3,5-dimethoxyphenyl)-1H-pyrazolo[4,3-c]pyridin-3-yl]-1H-pyrazol-1-yl}acetyl)pyrrolidin-3-ol]
< 100 nM: all assays above

COc1cc(OC)c(Cl)c(-c2cc3[nH]nc(-c4cnn(CC(=O)N5CCC(N(C)C)C5)c4)c3cn2)c1Cl (stereo not drawn) [Example 44, 1-({4-[6-(2,6-Dichloro-3,5-dimethoxyphenyl)-1H-pyrazolo[4,3-c]pyridin-3-yl]-1H-pyrazol-1-yl}acetyl)-N,N-dimethylpyrrolidin-3-amine]
< 100 nM: all assays above

COc1cc(OC)c(Cl)c(-c2cc3[nH]nc(-c4cnn(CC(=O)N5CCC(OC)C5)c4)c3cn2)c1Cl (stereo not drawn) [Example 45, 6-(2,6-Dichloro-3,5-dimethoxyphenyl)-3-{1-[2-(3-methoxypyrrolidin-1-yl)-2-oxoethyl]-1H-pyrazol-4-yl}-1H-pyrazolo[4,3-c]pyridine]
< 100 nM: all assays above

COCCNC(=O)Cn1cc(-c2n[nH]c3cc(-c4c(Cl)c(OC)cc(OC)c4Cl)ncc23)cn1 [Example 46, 2-{4-[6-(2,6-Dichloro-3,5-dimethoxyphenyl)-1H-pyrazolo[4,3-c]pyridin-3-yl]-1H-pyrazol-1-yl}-N-(2-methoxyethyl)acetamide]
< 100 nM: all assays above

COc1cc(OC)c(Cl)c(-c2cc3[nH]nc(-c4cnn(CC(=O)N5CCC(C#N)C5)c4)c3cn2)c1Cl (stereo not drawn) [Example 47, 1-({4-[6-(2,6-Dichloro-3,5-dimethoxyphenyl)-1H-pyrazolo[4,3-c]pyridin-3-yl]-1H-pyrazol-1-yl}acetyl)pyrrolidine-3-carbonitrile]
< 100 nM: all assays above

COc1cc(OC)c(Cl)c(-c2cc3[nH]nc(-c4cnn(CC(=O)N5CC[C@H](F)C5)c4)c3cn2)c1Cl [Example 48, 6-(2,6-Dichloro-3,5-dimethoxyphenyl)-3-(1-{2-[(3S)-3-fluoropyrrolidin-1-yl]-2-oxoethyl}-1H-pyrazol-4-yl)-1H-pyrazolo[4,3-c]pyridine]
< 100 nM: all assays above

COc1cc(OC)c(Cl)c(-c2cc3[nH]nc(/C=C/c4cnn(C)c4)c3cn2)c1Cl [Example 49, 6-(2,6-Dichloro-3,5-dimethoxyphenyl)-3-[(E)-2-(1-methyl-1H-pyrazol-4-yl)vinyl]-1H-pyrazolo[4,3-c]pyridine]
< 100 nM: all assays above

COc1cc(OC)c(Cl)c(-c2cc3[nH]nc(/C=C/c4cnn(CCO)c4)c3cn2)c1Cl [Example 50, 2-(4-{(E)-2-[6-(2,6-Dichloro-3,5-dimethoxyphenyl)-1H-pyrazolo[4,3-c]pyridin-3-yl]vinyl}-1H-pyrazol-1-yl)ethanol]
< 100 nM: all assays above

COc1cc(OC)c(Cl)c(-c2cc3[nH]nc(-c4cnn(C[C@H](C)O)c4)c3cn2)c1Cl [Example 51, (2S)-1-{4-[6-(2,6-Dichloro-3,5-dimethoxyphenyl)-1H-pyrazolo[4,3-c]pyridin-3-yl]-1H-pyrazol-1-yl}propan-2-ol]
< 100 nM: all assays above

CCN1Cc2cc(-c3n[nH]c4cc(-c5c(F)c(OC)cc(OC)c5F)ncc34)ccc2C1=O [Example 52, 5-[6-(2,6-Difluoro-3,5-dimethoxyphenyl)-1H-pyrazolo[4,3-c]pyridin-3-yl]-2-ethylisoindolin-1-one]
< 100 nM: all assays above

COc1cc(OC)c(F)c(-c2cc3[nH]nc(-c4ccc5c(c4)CN(C(C)C)C5=O)c3cn2)c1F [Example 53, 5-[6-(2,6-Difluoro-3,5-dimethoxyphenyl)-1H-pyrazolo[4,3-c]pyridin-3-yl]-2-isopropylisoindolin-1-one]
< 100 nM: all assays above

COc1cc(OC)c(F)c(-c2cc3[nH]nc(-c4ccc5c(c4)CN(C4CC4)C5=O)c3cn2)c1F [Example 54, 2-Cyclopropyl-5-[6-(2,6-difluoro-3,5-dimethoxyphenyl)-1H-pyrazolo[4,3-c]pyridin-3-yl]isoindolin-1-one]
< 100 nM: all assays above

CCN1Cc2cc(-c3n[nH]c4cc(-c5c(F)c(OC)cc(OC)c5F)ncc34)cnc2C1=O [Example 55, 3-[6-(2,6-Difluoro-3,5-dimethoxyphenyl)-1H-pyrazolo[4,3-c]pyridin-3-yl]-6-ethyl-5,6-dihydro-7H-pyrrolo[3,4-b]pyridin-7-one]
< 100 nM: all assays above

COc1cc(OC)c(F)c(-c2cc3[nH]nc(-c4ccc5c(c4)CCNC5=O)c3cn2)c1F [Example 56, 6-[6-(2,6-Difluoro-3,5-dimethoxyphenyl)-1H-pyrazolo[4,3-c]pyridin-3-yl]-3,4-dihydroisoquinolin-1(2H)-one]
< 100 nM: all assays above

COc1cc(OC)c(F)c(-c2cc3[nH]nc(-c4ccc5c(c4)CCC(C(=O)N(C)C)O5)c3cn2)c1F (stereo not drawn) [Example 57, 6-[6-(2,6-Difluoro-3,5-dimethoxyphenyl)-1H-pyrazolo[4,3-c]pyridin-3-yl]-N,N-dimethylchromane-2-carboxamide]
< 100 nM: all assays above
